target: T1, LHRH rat pituitary receptor (Rattus norvegicus, UniProt P30969); assay: LHRH rat pituitary receptor binding (pKI); settings: negative logarithm of the equilibrium dissociation constants, Table 1
T1 construct: from tissue; host or cells: rat pituitary
T1 sequence (P30969 1-327): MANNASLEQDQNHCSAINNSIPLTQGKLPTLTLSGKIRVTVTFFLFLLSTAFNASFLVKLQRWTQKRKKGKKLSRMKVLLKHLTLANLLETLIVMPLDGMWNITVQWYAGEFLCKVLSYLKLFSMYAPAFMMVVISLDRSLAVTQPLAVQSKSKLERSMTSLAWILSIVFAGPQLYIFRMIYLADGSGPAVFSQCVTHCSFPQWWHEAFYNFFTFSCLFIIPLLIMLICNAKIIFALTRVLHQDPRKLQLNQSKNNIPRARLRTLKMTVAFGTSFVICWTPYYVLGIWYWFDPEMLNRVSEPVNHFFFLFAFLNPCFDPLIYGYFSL
Protocol: Representative compounds of the present invention were evaluated in in vitro tests for LHRH rat pituitary receptor binding (pKI) and for LH inhibition from rat pituitary cells for antagonist potency (pA2). The tests employed the methods detailed in F. Haviv, et al. J. Med. Chem., 32: 2340-2344 (1989). The receptor binding affinity (pKI) is the negative logarithm of the equilibrium dissociation constants.

Row | receptor binding affinity (pKI) | Structure (SMILES)
1 | 8.17 | CC[C@H]1OC(=O)[C@H](C)[C@@H](O[C@H]2C[C@@](C)(OC)[C@@H](O)[C@H](C)O2)[C@H](C)[C@@H](O[C@@H]2O[C@H](C)C[C@H](N(C)CCC3CC3)[C@H]2O)[C@](C)(OC)C[C@@H](C)C(=O)[C@H](C)[C@H]2N(CCc3ccc(Cl)cc3)C(=O)O[C@]12C [Example 38, 3'-N-Desmethyl-3'-N-[2-(cyclopropyl)-ethyl]-11-deoxy-11-[carboxy-(4-chlorophenethylamino)]-6-O-methyl-erythromycin A 11,12-(cyclic carbamate)]

same assay, conditions: negative logarithm of the equilibrium dissociation constants, Table 1, read-out: receptor binding affinity (pKI) (converted)

Row | Structure (SMILES) | Ki
2 | CC[C@H]1OC(=O)[C@H](C)[C@@H](O[C@H]2C[C@@](C)(OC)[C@@H](O)[C@H](C)O2)[C@H](C)[C@@H](O[C@@H]2O[C@H](C)C[C@H](N(C)Cc3ccncc3)[C@H]2O)[C@](C)(OC)C[C@@H](C)C(=O)[C@H](C)[C@H]2N(CCc3ccc(Cl)cc3)C(=O)O[C@]12C [Example 34, 3'-N-Desmethyl-3'-N-(4-pyridylmethyl)-11-deoxy-11-[carboxy-(4-chlorophenethylamino)]-6-O-methyl-erythromycin A 11,12-(cyclic carbamate)] | 10 nM
3 | CCC(CC)N(C)[C@H]1C[C@@H](C)O[C@@H](O[C@@H]2[C@@H](C)[C@H](O[C@H]3C[C@@](C)(OC)[C@@H](O)[C@H](C)O3)[C@@H](C)C(=O)O[C@H](CC)[C@@]3(C)OC(=O)N(CCc4ccc(Cl)cc4)[C@@H]3[C@@H](C)C(=O)[C@H](C)C[C@@]2(C)OC)[C@@H]1O [Example 36, 3'-N-Desmethyl-3'-N-(3-pentyl)-11-deoxy-11-[carboxy-(4-chlorophenethylamino)]-6-O-methyl-erythromycin A 11,12-(cyclic carbamate)] | 9.12 nM
4 | CCCN(C)[C@H]1C[C@@H](C)O[C@@H](O[C@@H]2[C@@H](C)[C@H](O[C@H]3C[C@@](C)(OC)[C@@H](O)[C@H](C)O3)[C@@H](C)C(=O)O[C@H](CC)[C@@]3(C)OC(=O)N(CCc4ccc(C)c(C)c4)[C@@H]3[C@@H](C)C(=O)[C@H](C)C[C@@]2(C)OC)[C@@H]1O [Example 41, 3'-N-Desmethyl-3'-N-propyl-11-deoxy-11-[carboxy-(3,4-dimethylphenethylamino)]-6-O-methyl-erythromycin A 11,12-(cyclic carbamate)] | 8.51 nM
5 | CCCN(C)[C@H]1C[C@@H](C)O[C@@H](O[C@@H]2[C@@H](C)[C@H](O[C@H]3C[C@@](C)(OC)[C@@H](O)[C@H](C)O3)[C@@H](C)C(=O)O[C@H](CC)[C@@]3(C)OC(=O)N(CCc4ccc(OC)c(Br)c4)[C@@H]3[C@@H](C)C(=O)[C@H](C)C[C@@]2(C)OC)[C@@H]1O [Example 43, 3'-N-Desmethyl-3'-N-propyl-11-deoxy-11-[carboxy-(3-bromo-4-methoxyphenethylamino)]-6-O-methyl-erythromycin A 11,12-(cyclic carbamate)] | 3.55 nM
6 | CCCN(C)[C@H]1C[C@@H](C)O[C@@H](O[C@@H]2[C@@H](C)[C@H](O[C@H]3C[C@@](C)(OC)[C@@H](O)[C@H](C)O3)[C@@H](C)C(=O)O[C@H](CC)[C@@]3(C)OC(=O)N(CCc4ccc(F)c(Cl)c4)[C@@H]3[C@@H](C)C(=O)[C@H](C)C[C@@]2(C)OC)[C@@H]1O [Example 44, 3'-N-Desmethyl-3'-N-propyl-11-deoxy-11-[carboxy-(3-chloro-4-fluorophenethylamino)]-6-O-methyl-erythromycin A 11,12-(cyclic carbamate)] | 1.45 nM
7 | CC[C@H]1OC(=O)[C@H](C)[C@@H](O[C@H]2C[C@@](C)(OC)[C@@H](O)[C@H](C)O2)[C@H](C)[C@@H](O[C@@H]2O[C@H](C)C[C@H](N(C)Cc3ccco3)[C@H]2O)[C@](C)(OC)C[C@@H](C)C(=O)[C@H](C)[C@H]2N(CCc3ccc(F)c(Cl)c3)C(=O)O[C@]12C [Example 45, 3'-N-Desmethyl-3'-N-(2-furyl)methyl-11-deoxy-11-[carboxy-(3-chloro-4-fluorophenethylamino)]-6-O-methyl-erythromycin A 11,12-(cyclic carbamate)] | 3.55 nM
8 | CC[C@H]1OC(=O)[C@H](C)[C@@H](O[C@H]2C[C@@](C)(OC)[C@@H](O)[C@H](C)O2)[C@H](C)[C@@H](O[C@@H]2O[C@H](C)C[C@H](N(C)Cc3ccc(CO)o3)[C@H]2O)[C@](C)(OC)C[C@@H](C)C(=O)[C@H](C)[C@H]2N(CCc3ccc(F)c(Cl)c3)C(=O)O[C@]12C [Example 46, 3'-N-Desmethyl-3'-N-[2-(5-hydroxymethyl)furyl]methyl-11-deoxy-11-[carboxy-(3-chloro-4-fluorophenethylamino)]-6-O-methyl-erythromycin A 11,12-(cyclic carbamate)] | 1.15 nM
9 | CC[C@H]1OC(=O)[C@H](C)[C@@H](O[C@H]2C[C@@](C)(OC)[C@@H](O)[C@H](C)O2)[C@H](C)[C@@H](O[C@@H]2O[C@H](C)C[C@H](N(C)Cc3ccccn3)[C@H]2O)[C@](C)(OC)C[C@@H](C)C(=O)[C@H](C)[C@H]2N(CCc3ccc(F)c(Cl)c3)C(=O)O[C@]12C [Example 47, 3'-N-Desmethyl-3'-N-(2-pyridyl)methyl-11-deoxy-11-[carboxy-(3-chloro-4-fluorophenethylamino)]-6-O-methyl-erythromycin A 11,12-(cyclic carbamate)] | 2.51 nM
10 | CC[C@H]1OC(=O)[C@H](C)[C@@H](O[C@H]2C[C@@](C)(OC)[C@@H](O)[C@H](C)O2)[C@H](C)[C@@H](O[C@@H]2O[C@H](C)C[C@H](N(C)Cc3cccc(C)n3)[C@H]2O)[C@](C)(OC)C[C@@H](C)C(=O)[C@H](C)[C@H]2N(CCc3ccc(F)c(Cl)c3)C(=O)O[C@]12C [Example 48, 3'-N-Desmethyl-3'-N-[2-(6-methyl)pyridyl]methyl-11-deoxy-11-[carboxy-(3-chloro-4-fluorophenethylamino)]-6-O-methyl-erythromycin A 11,12-(cyclic carbamate)] | 1.91 nM

The remaining lines, values ahead:

Row | Ki | Structure (SMILES)
11 | 2.75 nM | CC[C@H]1OC(=O)[C@H](C)[C@@H](O[C@H]2C[C@@](C)(OC)[C@@H](O)[C@H](C)O2)[C@H](C)[C@@H](O[C@@H]2O[C@H](C)C[C@H](N(C)C3CCCC3)[C@H]2O)[C@](C)(OC)C[C@@H](C)C(=O)[C@H](C)[C@H]2N(CCc3cccc(Cl)c3)C(=O)O[C@]12C [Example 24, 3'-N-Desmethyl-3'-N-cyclopentyl-11-deoxy-11-[carboxy-(3-chlorophenethylamino)]-6-O-methyl-erythromycin A 11,12-(cyclic carbamate)]
12 | 7.59 nM | CCC(C)N(C)[C@H]1C[C@@H](C)O[C@@H](O[C@@H]2[C@@H](C)[C@H](O[C@H]3C[C@@](C)(OC)[C@@H](O)[C@H](C)O3)[C@@H](C)C(=O)O[C@H](CC)[C@@]3(C)OC(=O)N(CCc4ccc(Cl)cc4)[C@@H]3[C@@H](C)C(=O)[C@H](C)C[C@@]2(C)OC)[C@@H]1O (stereo partly shown) [Example 35, 3'-N-Desmethyl-3'-N-(2-butyl)-11-deoxy-11-[carboxy-(4-chlorophenethylamino)]-6-O-methyl-erythromycin A 11,12-(cyclic carbamate)]
13 | 9.12 nM | CC[C@H]1OC(=O)[C@H](C)[C@@H](O[C@H]2C[C@@](C)(OC)[C@@H](O)[C@H](C)O2)[C@H](C)[C@@H](O[C@@H]2O[C@H](C)C[C@H](N(C)CC3CC3)[C@H]2O)[C@](C)(OC)C[C@@H](C)C(=O)[C@H](C)[C@H]2N(CCc3ccc(Cl)cc3)C(=O)O[C@]12C [Example 37, 3'-N-Desmethyl-3'-N-(cyclopropylmethyl)-11-deoxy-11-[carboxy-(4-chlorophenethylamino)]-6-O-methyl-erythromycin A 11,12-(cyclic carbamate)]
14 | 5.13 nM | CCCN(C)[C@H]1C[C@@H](C)O[C@@H](O[C@@H]2[C@@H](C)[C@H](O[C@H]3C[C@@](C)(OC)[C@@H](O)[C@H](C)O3)[C@@H](C)C(=O)O[C@H](CC)[C@@]3(C)OC(=O)N(CCc4ccc(OC)cc4)[C@@H]3[C@@H](C)C(=O)[C@H](C)C[C@@]2(C)OC)[C@@H]1O [Example 39, 3'-N-Desmethyl-3'-N-propyl-11-deoxy-11-[carboxy-(4-methoxyphenethylamino)]-6-O-methyl-erythromycin A 11,12-(cyclic carbamate)]
15 | 5.75 nM | CC[C@H]1OC(=O)[C@H](C)[C@@H](O[C@H]2C[C@@](C)(OC)[C@@H](O)[C@H](C)O2)[C@H](C)[C@@H](O[C@@H]2O[C@H](C)C[C@H](N(C)C3CCCC3)[C@H]2O)[C@](C)(OC)C[C@@H](C)C(=O)[C@H](C)[C@H]2N(CCc3ccc(OC)cc3)C(=O)O[C@]12C [Example 40, 3'-N-Desmethyl-3'-N-cyclopentyl-11-deoxy-11-[carboxy-(4-methoxyphenethylamino)]-6-O-methyl-erythromycin A 11,12-(cyclic carbamate)]
16 | 7.24 nM | CC[C@H]1OC(=O)[C@H](C)[C@@H](O[C@H]2C[C@@](C)(OC)[C@@H](O)[C@H](C)O2)[C@H](C)[C@@H](O[C@@H]2O[C@H](C)C[C@H](N(C)C3CCCC3)[C@H]2O)[C@](C)(OC)C[C@@H](C)C(=O)[C@H](C)[C@H]2N(CCc3ccc(OC)c(Br)c3)C(=O)O[C@]12C [Example 42, 3'-N-Desmethyl-3'-N-cyclopentyl-11-deoxy-11-[carboxy-(3-bromo-4-methoxyphenethylamino)]-6-O-methyl-erythromycin A 11,12-(cyclic carbamate)]

Reference: US5955440A, “Macrolide LHRH antagonists” (Abbott Laboratories, priority 1998, dated 1999)
